≈ marks a conversion by molar mass, not a printed value.
How the values were obtained:
Format in all cases: cell-based
E. coli = experiment: In-vitro antimicrobial test (MIC, NCCLS protocol); conditions: standard NCCLS protocol
Excerpt: (§1) The activity of the compounds of the invention in-vitro can be illustrated as follows:
(§2) The test method was in accordance with the standard NCCLS protocol.

MRSA = experiment: In-vitro antimicrobial test (MIC, NCCLS protocol); conditions: standard NCCLS protocol
Excerpt: as §1, §2

P. aeruginosa = experiment: In-vitro antimicrobial test (MIC, NCCLS protocol); conditions: standard NCCLS protocol
Excerpt: as §1, §2

S. pneumoniae = experiment: In-vitro antimicrobial test (MIC, NCCLS protocol); conditions: standard NCCLS protocol
Excerpt: as §1, §2

VRE = experiment: In-vitro antimicrobial test (MIC, NCCLS protocol); conditions: standard NCCLS protocol
Excerpt: as §1, §2

S. pneumoniae ATCC 6303 = experiment: % Killing of Streptococci at 4 MIC, 8 hrs
Excerpt: (§3) Comparison of a typical compound of the invention vs S-(−)-9-fluoro-8-(4′-hydroxypiperidin-1-yl)-5-methyl-6,7-dihydro-1-oxo-1H-5H-benzo[i,j]quinolizine-2-carboxylic acid in terms of % Killing of Streptococci
(§4) As against this, a typical compound of the invention, which has an improved bactericidal power againt streptococci, consistently brings about killing of 99% of streptococcal population.

S. pyogenes ATCC 25147 = experiment: % Killing of Streptococci at 4 MIC, 8 hrs
Excerpt: as §3, §4

S. salivarius ATCC 13419 = experiment: % Killing of Streptococci at 4 MIC, 8 hrs
Excerpt: as §3, §4

S. sanguis ATCC 10556 = experiment: % Killing of Streptococci at 4 MIC, 8 hrs
Excerpt: as §3, §4

streptococcal population = experiment: % Killing of Streptococci, summary over strains; conditions: exposed to 4×MIC concentrations for 8 hours; depending upon the streptococcal strain
Excerpt: as §3, §4

| Compound | MIC (E. coli) [µg/mL] | MIC (MRSA) [µg/mL] | MIC (P. aeruginosa) [µg/mL] | MIC (S. pneumoniae) [µg/mL] | MIC (VRE) [µg/mL] | 4 MIC-% Kill at 8 hrs. (S. pneumoniae ATCC 6303) [%] | 4 MIC-% Kill at 8 hrs. (S. pyogenes ATCC 25147) [%] | 4 MIC-% Kill at 8 hrs. (S. salivarius ATCC 13419) [%] | 4 MIC-% Kill at 8 hrs. (S. sanguis ATCC 10556) [%] | killing of streptococcal population (streptococcal population) [%] |
| --- | --- | --- | --- | --- | --- | --- | --- | --- | --- | --- |
| CC1CCc2c(N3CCC(O)CC3)c(F)cc3c(=O)c(C(=O)O)cn1c23 (racemic) [Ref. 1, RS(±)-9-fluoro-8-(4′-hydroxypiperidin-1-yl)-5-methyl-6,7-dihydro-1-oxo-1H-5H-benzo[i,j]quinolizine-2-carboxylic acid, reference compound] | 0.4 (≈ 1.11 µM) | 1.56 (≈ 4.33 µM) | 6.25 (≈ 17.3 µM) | 0.4 (≈ 1.11 µM) | 12.5 (≈ 34.7 µM) | – | – | – | – | – |
| CC1CN(c2c(F)cc3c(=O)c(C(=O)O)cn4c3c2CC[C@@H]4C)CCC1O (mixture of isomers) [Compound A, S-(−)-9-fluoro-6,7-dihydro-8-{trans-4-(RS)-hydroxy-3-(RS)-methylpiperidin-1-yl}-5-methyl-1-oxo-1H,5H-benzo[i,j]quinolizine-2-carboxylic acid] | 0.2 (≈ 0.534 µM) | 0.4 (≈ 1.07 µM) | 3.12 (≈ 8.33 µM) | 0.2 (≈ 0.534 µM) | 6.25 (≈ 16.7 µM) | – | – | – | – | – |
| C[C@H]1CCc2c(N3CCC(O)CC3)c(F)cc3c(=O)c(C(=O)O)cn1c23 [Ref. 2, S-(−)-9-fluoro-8-(4′-hydroxypiperidin-1-yl)-5-methyl-6,7-dihydro-1-oxo-1H-5H-benzo[i,j]quinolizine-2-carboxylic acid, reference compound] | 0.2 (≈ 0.555 µM) | 0.8 (≈ 2.22 µM) | 3.12 (≈ 8.66 µM) | 0.2 (≈ 0.555 µM) | 6.25 (≈ 17.3 µM) | 50 | 45.4 | 0 | 40 | ≤ 50 |
| C[C@@H]1CN(c2c(F)cc3c(=O)c(C(=O)O)cn4c3c2CC[C@@H]4C)CC[C@@H]1O (relative stereo) [Compound D, S-(−)-9-fluoro-6,7-dihydro-8-{cis-(+)-4-S-hydroxy-3-R-methylpiperidin-1-yl}-5-methyl-1-oxo-1H,5H-benzo[i,j]quinolizine-2-carboxylic acid] | 0.2 (≈ 0.534 µM) | 0.8 (≈ 2.14 µM) | 6.25 (≈ 16.7 µM) | 0.8 (≈ 2.14 µM) | 6.25 (≈ 16.7 µM) | – | – | – | – | – |
| CC1CN(c2c(F)cc3c(=O)c(C(=O)O)cn4c3c2CC[C@@H]4C)CCC1O (stereo partly drawn) [Typical compound of the invention, S-(-)-9-fluoro-6,7-dihydro-8-(4-hydroxy-3-methylpiperidin-1-yl)-5-methyl-1-oxo-1H,5H-benzo[i,j]quinolizine-2-carboxylic acid] | – | – | – | – | – | 99.8 | 98.4 | 99.7 | 98.6 | 99 |
| CCC1CN(c2c(F)cc3c(=O)c(C(=O)O)cn4c3c2CC[C@@H]4C)CCC1O (stereo partly drawn) [Compound E, S-(−)-9-fluoro-6,7-dihydro-8-(3-ethyl-4-hydroxypiperidin-1-yl)-5-methyl-1-oxo-1H,5H-benzo[i,j]quinolizine-2-carboxylic acid] | 0.8 (≈ 2.06 µM) | 1.56 (≈ 4.02 µM) | >12.5 | 0.2 (≈ 0.515 µM) | 12.5 (≈ 32.2 µM) | – | – | – | – | – |
| C[C@H]1CN(c2c(F)cc3c(=O)c(C(=O)O)cn4c3c2CC[C@@H]4C)CC[C@H]1O (relative stereo) [Compound C, S-(−)-9-fluoro-6,7-dihydro-8-{cis-(−)-4-R-hydroxy-3-S-methylpiperidin-1-yl}-5-methyl-1-oxo-1H,5H-benzo[i,j]quinolizine-2-carboxylic acid] | 0.1 (≈ 0.267 µM) | 0.8 (≈ 2.14 µM) | 6.25 (≈ 16.7 µM) | 0.1 (≈ 0.267 µM) | 6.25 (≈ 16.7 µM) | – | – | – | – | – |
| CC1CN(c2c(F)cc3c(=O)c(C(=O)O)cn4c3c2CC[C@@H]4C)CCC1O (mixture of isomers) [Compound B] | 0.2 (≈ 0.534 µM) | 0.8 (≈ 2.14 µM) | 6.25 (≈ 16.7 µM) | 0.2 (≈ 0.534 µM) | 6.25 (≈ 16.7 µM) | – | – | – | – | – |
